Experimental data: ChEMBL document CHEMBL2424636, “Synthesis and anticancer activity evaluation of new 1,2,3-triazole-4-carboxamide derivatives” (2013)

Legend:
Type in all cases: functional
UO-31 = assay: Cytotoxicity against human UO31 cells assessed as cell growth at 10^-5 M after 48 hrs by SRB assay; details: UO-31, 48 h, read-out: Activity
OVCAR-8 = assay: Cytotoxicity against human OVCAR8 cells assessed as cell growth at 10^-5 M after 48 hrs by SRB assay; details: OVCAR-8, 48 h, read-out: Activity
U-251 [1] = assay: Cytotoxicity against human U251 cells assessed as cell growth at 10^-5 M after 48 hrs by SRB assay; details: U-251, 48 h, read-out: Activity
SNB-75 [2] = assay: Cytotoxicity against human SNB75 cells assessed as cell growth at 10^-5 M after 48 hrs by SRB assay; details: SNB-75, 48 h, read-out: Activity
SF-268 [3] = assay: Cytotoxicity against human SF268 cells assessed as cell growth at 10^-5 M after 48 hrs by SRB assay; details: SF-268, 48 h, read-out: Activity
HOP-62 = assay: Cytotoxicity against human HOP62 cells assessed as cell growth at 10^-5 M after 48 hrs by SRB assay; details: HOP-62, 48 h, read-out: Activity
UACC-62 = assay: Cytotoxicity against human UACC62 cells assessed as cell growth at 10^-5 M after 48 hrs by SRB assay; details: UACC-62, 48 h, read-out: Activity
[4] = Cytotoxicity against human EKVX cells assessed as cell growth at 10^-5 M after 48 hrs by SRB assay; details: read-out: Activity
RPMI-8226 = assay: Cytotoxicity against human RPMI8226 cells assessed as cell growth at 10^-5 M after 48 hrs by SRB assay; details: RPMI-8226, 48 h, read-out: Activity
CCRF-CEM = assay: Cytotoxicity against human CCRF-CEM cells assessed as cell growth at 10^-5 M after 48 hrs by SRB assay; details: read-out: Activity
T47D = assay: Cytotoxicity against human T47D cells assessed as cell growth at 10^-5 M after 48 hrs by SRB assay; details: read-out: Activity
SK-MEL-5 = assay: Cytotoxicity against human SK-MEL-5 cells assessed as cell growth at 10^-5 M after 48 hrs by SRB assay; details: SK-MEL-5, 48 h, read-out: Activity
SR [5] = assay: Cytotoxicity against human SR cells assessed as cell growth at 10^-5 M after 48 hrs by SRB assay; details: read-out: Activity
MOLT-4 = assay: Cytotoxicity against human MOLT4 cells assessed as cell growth at 10^-5 M after 48 hrs by SRB assay; details: MOLT-4, 48 h, read-out: Activity
PC-3 = assay: Cytotoxicity against human PC3 cells assessed as cell growth at 10^-5 M after 48 hrs by SRB assay; details: PC-3, 48 h, read-out: Activity
HOP-92 [6] = assay: Cytotoxicity against human HOP92 cells assessed as cell growth at 10^-5 M after 48 hrs by SRB assay; details: HOP-92, 48 h, read-out: Activity
MDA-MB-231 = assay: Cytotoxicity against human MDA-MB-231/ATCC cells after 48 hrs by SRB assay; details: MDA-MB-231, 48 h; for TGI: read-out: pTGI
Hs-578T = assay: Cytotoxicity against human Hs578T cells after 48 hrs by SRB assay
TK-10 = assay: Cytotoxicity against human TK10 cells after 48 hrs by SRB assay; details: TK-10, 48 h; for TGI: read-out: pTGI
RXF 393 [7] = assay: Cytotoxicity against human RXF393 cells after 48 hrs by SRB assay; details: RXF 393, 48 h; for TGI: read-out: pTGI (converted)
SK-OV-3 = assay: Cytotoxicity against human SKOV3 cells after 48 hrs by SRB assay; details: SK-OV-3, 48 h; for TGI: read-out: pTGI
OVCAR-4 = assay: Cytotoxicity against human OVCAR4 cells after 48 hrs by SRB assay; details: OVCAR-4, 48 h
Malme-3M = assay: Cytotoxicity against human MALME-3M cells after 48 hrs by SRB assay; details: for TGI: read-out: pTGI
U-251 [8] = assay: Cytotoxicity against human U251 cells after 48 hrs by SRB assay; details: U-251, 48 h; for TGI: read-out: pTGI
SNB-75 [9] = assay: Cytotoxicity against human SNB75 cells after 48 hrs by SRB assay; details: SNB-75, 48 h; for TGI: read-out: pTGI (converted)
SF-539 [10] = assay: Cytotoxicity against human SF539 cells after 48 hrs by SRB assay; details: SF-539, 48 h; for TGI: read-out: pTGI
SF-295 = assay: Cytotoxicity against human SF295 cells after 48 hrs by SRB assay; details: SF-295, 48 h
SF-268 [11] = assay: Cytotoxicity against human SF268 cells after 48 hrs by SRB assay; details: SF-268, 48 h
HOP-92 [12] = assay: Cytotoxicity against human HOP92 cells after 48 hrs by SRB assay; details: HOP-92, 48 h
SR [13] = assay: Cytotoxicity against human SR cells after 48 hrs by SRB assay
K562 = assay: Cytotoxicity against human K562 cells after 48 hrs by SRB assay; details: K562, 48 h
RXF 393 [14] = assay: Cytotoxicity against human RXF393 cells assessed as cell growth at 10^-5 M after 48 hrs by SRB assay; details: RXF 393, 48 h, read-out: Activity
786-0 = assay: Cytotoxicity against human 786-0 cells assessed as cell growth at 10^-5 M after 48 hrs by SRB assay; details: 786-0, 48 h, read-out: Activity
MCF7 = assay: Cytotoxicity against human MCF7 cells assessed as cell growth at 10^-5 M after 48 hrs by SRB assay; details: MCF7, 48 h, read-out: Activity
SF-539 [15] = assay: Cytotoxicity against human SF539 cells assessed as cell growth at 10^-5 M after 48 hrs by SRB assay; details: SF-539, 48 h, read-out: Activity
A498 = assay: Cytotoxicity against human A498 cells assessed as cell growth at 10^-5 M after 48 hrs by SRB assay; details: A498, 48 h, read-out: Activity
MDA-MB-468 = assay: Cytotoxicity against human MDA-MB-468 cells assessed as cell growth at 10^-5 M after 48 hrs by SRB assay; details: MDA-MB-468, 48 h, read-out: Activity

SMILES: COc1ccccc1-n1nnc(C(=O)Nc2ncc(Cc3ccccc3)s2)c1C
- growth at 10 µM (UO-31): 73.3%
- growth at 10 µM (OVCAR-8): 68%
- growth at 10 µM (U-251 [1]): 75.6%
- growth at 10 µM (SNB-75 [2]): 53.9%
- growth at 10 µM (SF-268 [3]): 75.5%
- growth at 10 µM (HOP-62): 54.8%

SMILES: Cc1ccc(-n2nnc(C(=O)Nc3ncc(Cc4cccc(Cl)c4)s3)c2C)cc1
- growth at 10 µM (UO-31): 70.8%
- growth at 10 µM (UACC-62): 76.6%
- growth at 10 µM [4]: 74.9%
- growth at 10 µM (RPMI-8226): 62.7%
- growth at 10 µM (CCRF-CEM): 63.3%

SMILES: Cc1ccccc1-n1nnc(C(=O)Nc2ccc(Cl)cc2Cl)c1N
- growth at 10 µM (T47D): 60.9%
- growth at 10 µM (SK-MEL-5): 55.9%
- growth at 10 µM [4]: 56.7%
- growth at 10 µM (RPMI-8226): 59.6%

SMILES: Cc1ccc(-n2nnc(C(=O)NCc3ccccc3)c2N)cc1
- growth at 10 µM (SR [5]): 68.2%
- growth at 10 µM (MOLT-4): 75.8%

SMILES: COc1ccc(NC(=O)c2nnn(-c3ccc(C)cc3)c2N)cc1
- growth at 10 µM (PC-3): 74.3%
- growth at 10 µM (HOP-92 [6]): 69.4%

SMILES: Cc1ccc(-n2nnc(C(=O)Nc3cc(Cl)ccc3Cl)c2N)cc1
- GI50 (MDA-MB-231): 6.17 µM
- TGI (MDA-MB-231): > 100 µM
- GI50 (Hs-578T): 4.47 µM
- TGI (Hs-578T; read-out: pTGI): > 100 µM
- GI50 (TK-10): 5.89 µM
- TGI (TK-10): > 100 µM
- GI50 (RXF 393 [7]): 3.47 µM
- TGI (RXF 393 [7]): 50.1 µM
- GI50 (SK-OV-3): 2.82 µM
- TGI (SK-OV-3): > 100 µM
- GI50 (OVCAR-4): 1620 nM
- TGI (OVCAR-4; read-out: pTGI): > 100 µM
- GI50 (Malme-3M): 2.45 µM
- TGI (Malme-3M): > 100 µM
- GI50 (U-251 [8]): 6.03 µM
- TGI (U-251 [8]): > 100 µM
- GI50 (SNB-75 [9]): 1380 nM
- TGI (SNB-75 [9]): 6.03 µM
- GI50 (SF-539 [10]): 4.27 µM
- TGI (SF-539 [10]): > 100 µM
- GI50 (SF-295): 5.01 µM
- TGI (SF-295; read-out: pTGI): > 100 µM
- GI50 (SF-268 [11]): 5.5 µM
- TGI (SF-268 [11]; read-out: pTGI): > 100 µM
- GI50 (HOP-92 [12]): 589 nM
- TGI (HOP-92 [12]; read-out: pTGI (converted)): 5.89 µM
- GI50 (SR [13]): 2510 nM
- TGI (SR [13]; read-out: pTGI (converted)): 60.3 µM
- GI50 (K562): 7.76 µM
- TGI (K562; read-out: pTGI): > 100 µM
- growth at 10 µM (UO-31): -7.62%
- growth at 10 µM (RXF 393 [14]): -13.4%
- growth at 10 µM (786-0): 2.96%
- growth at 10 µM (SNB-75 [2]): 1.32%
- growth at 10 µM (HOP-92 [6]): -3.42%

SMILES: CCc1nnc(NC(=O)c2nnn(-c3ccc(C)cc3)c2N)s1
- growth at 10 µM (T47D): 77.4%
- growth at 10 µM (SNB-75 [2]): 76.2%
- growth at 10 µM (HOP-92 [6]): 71.5%

SMILES: Cc1cc(C)cc(-n2nnc(C(=O)NC(C)C)c2N)c1
- growth at 10 µM (MCF7): 83.3%
- growth at 10 µM (SF-539 [15]): 78.9%
- growth at 10 µM (SR [5]): 83.6%

SMILES: Cc1cccc(C)c1NC(=O)c1nnn(-c2ccc(F)cc2)c1N
- growth at 10 µM (A498): 78.7%
- growth at 10 µM (HOP-92 [6]): 76.8%
- growth at 10 µM [4]: 75.9%
- growth at 10 µM (SR [5]): 66.7%
- growth at 10 µM (CCRF-CEM): 64%

SMILES: COc1ccc(NC(=O)c2nnn(-c3ccc(F)cc3)c2N)c(OC)c1
- GI50 (MDA-MB-231): 6.46 µM
- TGI (MDA-MB-231): > 100 µM
- GI50 (TK-10): 30.2 µM
- TGI (TK-10): > 100 µM
- GI50 (RXF 393 [7]): 37.2 µM
- TGI (RXF 393 [7]): > 100 µM
- GI50 (SK-OV-3): 13.8 µM
- TGI (SK-OV-3): > 100 µM
- GI50 (Malme-3M): 12.9 µM
- TGI (Malme-3M): > 100 µM
- GI50 (U-251 [8]): 11.7 µM
- TGI (U-251 [8]): > 100 µM
- GI50 (SNB-75 [9]): 3890 nM
- TGI (SNB-75 [9]): > 100 µM
- GI50 (SF-539 [10]): 17.8 µM
- TGI (SF-539 [10]): > 100 µM
- growth at 10 µM (T47D): -2.61%
- growth at 10 µM (786-0): -1.64%
- growth at 10 µM (U-251 [1]): -9.89%
- growth at 10 µM (SNB-75 [2]): -27.3%
- growth at 10 µM (SF-539 [15]): -4.64%

SMILES: CCc1ccc(NC(=O)c2nnn(-c3ccc(OC)cc3)c2N)cc1
- growth at 10 µM (MDA-MB-468): 62.6%
- growth at 10 µM (SK-MEL-5): 56.3%
- growth at 10 µM (RPMI-8226): 60.9%
